ChEMBL document CHEMBL3351881, “Chemical constituents isolated from Disporum viridescens leaves and their inhibitory effect on nitric oxide production in BV2 microglial cells” (Bioorg Med Chem Lett, 2014)
The source made the active and inactive calls. No cut-off for these calls is given here.

Experiments:
BV-2 [1] = experiment: Inhibition of LPS-induced iNOS protein expression in […] cells at 0.1 uM by Western blotting analysis; type: functional, cell-based
[2] = biological target: T1, NF-kappa-B inhibitor alpha (Homo sapiens) (UniProt P25963); experiment: Inhibition of LPS-induced IkB-alpha degradation in […] cells at 0.1 uM by Western blotting analysis; type: cell-based; settings: BV-2
T1 sequence (whole entry): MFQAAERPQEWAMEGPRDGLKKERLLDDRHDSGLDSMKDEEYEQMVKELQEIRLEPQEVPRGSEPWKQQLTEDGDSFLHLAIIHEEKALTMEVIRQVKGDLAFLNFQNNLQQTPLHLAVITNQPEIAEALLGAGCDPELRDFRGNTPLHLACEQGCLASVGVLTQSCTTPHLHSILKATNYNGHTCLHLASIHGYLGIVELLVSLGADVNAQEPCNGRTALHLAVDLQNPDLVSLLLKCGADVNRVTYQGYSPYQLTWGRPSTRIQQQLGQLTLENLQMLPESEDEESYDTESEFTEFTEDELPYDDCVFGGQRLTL

BV-2 [3] = experiment: Inhibition of LPS-induced ERK phosphorylation in […] cells at 0.1 uM by Western blotting analysis; type: cell-based
BV-2 [4] = experiment: Neuroprotective effect in […] cells assessed as LPS-induced nitric oxide production at 10 to 100 uM incubated for 1 hr prior to LPS challenge measured after 24 hrs by Griess assay; type: functional, cell-based; settings: Mus musculus
BV-2 [5] = experiment: Inhibition of LPS-induced COX-2 protein expression in […] cells at 0.1 uM by Western blotting analysis; type: functional, cell-based
[6] = test system: MAP kinase p38 (Mus musculus); experiment: Inhibition of LPS-induced p38 phosphorylation in mouse BV2 cells at 0.1 uM by Western blotting analysis; settings: BV-2
[7] = test system: c-Jun N-terminal kinase, JNK (Mus musculus); experiment: Inhibition of LPS-induced JNK phosphorylation in mouse BV2 cells at 0.1 uM by Western blotting analysis; settings: BV-2

`COc1cc([C@H]2O[C@H](O)C3C2CO[C@@H]3c2ccc(O)c(OC)c2)ccc1O` (some centres not stated) was tested, and the inhibition (BV-2 [1]) was “Active”, the inhibition [2] was “inactive” and the inhibition (BV-2 [3]) was “Active”. The Activity (BV-2 [4]) was “Active”, the inhibition (BV-2 [5]) was “Active” and the inhibition [6] was “Active”. For the same compound, the inhibition [7] was “Active”.
With `COc1cc([C@H]2Oc3c(O)cc(CCCO)cc3[C@@H]2CO)ccc1O` the inhibition (BV-2 [1]) was “Active”, the Activity (BV-2 [4]) was “Active” and the inhibition (BV-2 [5]) was “Active”.
For `COc1cc([C@H]2OC[C@@]3(O[C@@H]4O[C@H](CO)[C@@H](O)[C@H](O)[C@H]4O)C2CO[C@@H]3c2ccc(O)c(OC)c2)ccc1O` (some centres not stated), the Activity (BV-2 [4]) was “Active”.
With `COc1cc([C@H]2Oc3c(OC)cc(CCCO)cc3[C@@H]2CO[C@@H]2O[C@H](CO)[C@@H](O)[C@H](O)[C@H]2O)ccc1O` the Activity (BV-2 [4]) was “Active”.
